Assay results from patent US6800674B2, “Anthraquinone compound and water-based ink-jet recording ink containing the compound” (Mitsui Chemicals, Inc., priority 2000, dated 2004).

Key:
Type in all cases: physicochemical
[1] = Evaluation of light fastness (xenon fadeometer, OD2); conditions: aqueous ink, ink production process Example 1; OD2 after 100 hours of irradiation
Procedure: (§1) Glycerin and water were added to the dispersion (A) of colored resin fine particles to obtain aqueous ink having a solid content of 15% by weight. This aqueous ink was used, and filled in an ink cartridge for a piezo-type ink jet printer, and printing and image recording were conducted with the same printer. The test was conducted on the following items.
(E) Evaluation of Light Fastness
Printing density (OD value) was measured using a xenon fadeometer (manufactured by Suga Shikenki) before irradiation and after 100 hours of irradiation. Light fastness was evaluated upon comparing OD2.
OD2=(OD value after irradiation)/(OD value before irradiation)×100[%]

[2] = Evaluation of water resistance (OD1 after/before dipping in water); conditions: aqueous ink, OD1 after dipping in water and air-drying
Procedure: as §1
(D) Evaluation of Water Resistance
With respect to a printed portion of a plain paper having a recorded image thereon for test, printing density (OD value) was measured with a reflection densitometer before dipping in water and after dipping in water and air-drying. Water resistance was evaluated upon comparing OD1.
OD1=(OD value after dipping in water and air-drying)/(OD value before dipping in water)×100[%]

[3] = Evaluation of light fastness (xenon fadeometer, OD2); conditions: aqueous ink, ink production process Example 2; OD2 after 100 hours of irradiation
[4] = ink production process Example 1
[5] = ink production process Example 2

Row | SMILES | E (Evaluation of light fastness) [1] | D (Evaluation of water resistance) [2, 4] | E (Evaluation of light fastness) [3] | D (Evaluation of water resistance) [2, 5]
1 | CCCCCCCCN(CCCCCCCC)c1cccc(Oc2cc(O)c3c(c2N)C(=O)c2ccccc2C3=O)c1 [Coloring matter No. 1] | ⊚⊚ (OD value is 90 to 100%.) | ⊚⊚ (OD value is 90 to 100%.) | – | –
2 | Nc1ccccc1Oc1cc(O)c2c(c1N)C(=O)c1ccccc1C2=O [compound 4] | ◯ (OD value is 70 to less than 80%.) | ⊚ (OD value is 80 to less than 90%.) | ◯ (OD value is 70 to less than 80%.) | ⊚ (OD value is 80 to less than 90%.)
3 | CN(C)c1cccc(Oc2cc(O)c3c(c2N)C(=O)c2ccccc2C3=O)c1 [compound 5] | ⊚ (OD value is 80 to less than 90%.) | ⊚⊚ (OD value is 90 to 100%.) | ⊚ (OD value is 80 to less than 90%.) | ⊚⊚ (OD value is 90 to 100%.)
4 | CCNc1cccc(Oc2cc(O)c3c(c2N)C(=O)c2ccccc2C3=O)c1 [compound 6] | ⊚ (OD value is 80 to less than 90%.) | ⊚⊚ (OD value is 90 to 100%.) | ◯ (OD value is 70 to less than 80%.) | ⊚⊚ (OD value is 90 to 100%.)
5 | CCN(CC)c1cccc(Oc2cc(O)c3c(c2N)C(=O)c2ccccc2C3=O)c1 [compound 7] | ⊚ (OD value is 80 to less than 90%.) | ⊚⊚ (OD value is 90 to 100%.) | ⊚ (OD value is 80 to less than 90%.) | ⊚⊚ (OD value is 90 to 100%.)
6 | CCCN(CCC)c1cccc(Oc2cc(O)c3c(c2N)C(=O)c2ccccc2C3=O)c1 [compound 8] | ⊚⊚ (OD value is 90 to 100%.) | ⊚⊚ (OD value is 90 to 100%.) | ⊚⊚ (OD value is 90 to 100%.) | ⊚⊚ (OD value is 90 to 100%.)
7 | CCCCCCN(CCCCCC)c1cccc(Oc2cc(O)c3c(c2N)C(=O)c2ccccc2C3=O)c1 [compound 10] | ⊚⊚ (OD value is 90 to 100%.) | ⊚⊚ (OD value is 90 to 100%.) | ⊚⊚ (OD value is 90 to 100%.) | ⊚⊚ (OD value is 90 to 100%.)
8 | CCCC(C)N(c1cccc(Oc2cc(O)c3c(c2N)C(=O)c2ccccc2C3=O)c1)C(C)CCC (stereo not drawn) [compound 11] | ⊚⊚ (OD value is 90 to 100%.) | ⊚⊚ (OD value is 90 to 100%.) | ⊚⊚ (OD value is 90 to 100%.) | ⊚⊚ (OD value is 90 to 100%.)
9 | Nc1c(Oc2ccc(C(c3ccccc3)c3ccccc3)cc2)cc(O)c2c1C(=O)c1ccccc1C2=O [compound 12] | ◯ (OD value is 70 to less than 80%.) | ⊚ (OD value is 80 to less than 90%.) | ◯ (OD value is 70 to less than 80%.) | ⊚ (OD value is 80 to less than 90%.)
10 | CCCCC(CC)CC(=O)Nc1ccc(O)cc1Sc1cc(O)c2c(c1N)C(=O)c1ccccc1C2=O (stereo not drawn) [compound 19] | Δ (OD value is 50 to less than 70%.) | ◯ (OD value is 70 to less than 80%.) | – | –
11 | CCCCCCCCOC(=O)CSc1cc(O)c2c(c1N)C(=O)c1ccccc1C2=O [compound 20] | Δ (OD value is 50 to less than 70%.) | ◯ (OD value is 70 to less than 80%.) | – | –
12 | CCCCCCCCSc1cc(O)c2c(c1N)C(=O)c1ccccc1C2=O [compound 21] | Δ (OD value is 50 to less than 70%.) | ◯ (OD value is 70 to less than 80%.) | – | –
13 | Nc1ccccc1Sc1cc(O)c2c(c1N)C(=O)c1ccccc1C2=O [compound 22] | Δ (OD value is 50 to less than 70%.) | ◯ (OD value is 70 to less than 80%.) | – | –
14 | Nc1c(Oc2ccccc2)cc(O)c2c1C(=O)c1ccccc1C2=O [compound 23] | Δ (OD value is 50 to less than 70%.) | ◯ (OD value is 70 to less than 80%.) | – | –
15 | Cc1cccc(Oc2cc(O)c3c(c2N)C(=O)c2ccccc2C3=O)c1 [compound 24] | ◯ (OD value is 70 to less than 80%.) | ◯ (OD value is 70 to less than 80%.) | – | –
16 | Cc1ccc(CCCOc2cc(O)c3c(c2N)C(=O)c2ccccc2C3=O)cc1 [compound 25] | ◯ (OD value is 70 to less than 80%.) | ◯ (OD value is 70 to less than 80%.) | – | –

Row | SMILES | E (Evaluation of light fastness) [1] | D (Evaluation of water resistance) [2, 4] | E (Evaluation of light fastness) [3] | D (Evaluation of water resistance) [2, 5]
17 | CCCCC(CC)COC(=O)CSc1cccc(Oc2cc(O)c3c(c2N)C(=O)c2ccccc2C3=O)c1 (stereo not drawn) [compound 26] | ◯ (OD value is 70 to less than 80%.) | ◯ (OD value is 70 to less than 80%.) | – | –
18 | CCCCCCCCCCCCCCCCCCOC(=O)CSc1cc(O)c2c(c1N)C(=O)c1ccccc1C2=O [compound 27] | Δ (OD value is 50 to less than 70%.) | ◯ (OD value is 70 to less than 80%.) | – | –
19 | CCCCC(CC)COC(=O)CSc1ccccc1Oc1cc(O)c2c(c1N)C(=O)c1ccccc1C2=O (stereo not drawn) [compound 28] | ◯ (OD value is 70 to less than 80%.) | ◯ (OD value is 70 to less than 80%.) | – | –
20 | CCCCC(CC)COC(=O)CCSc1cc(O)c2c(c1N)C(=O)c1ccccc1C2=O (stereo not drawn) [compound 29] | Δ (OD value is 50 to less than 70%.) | ◯ (OD value is 70 to less than 80%.) | – | –
21 | CCCCC(CC)COC(=O)CSc1cc(O)c2c(c1N)C(=O)c1ccccc1C2=O (stereo not drawn) [compound 30] | Δ (OD value is 50 to less than 70%.) | ◯ (OD value is 70 to less than 80%.) | – | –
22 | Nc1c(SCCOCCSc2cc(O)c3c(c2N)C(=O)c2ccccc2C3=O)cc(O)c2c1C(=O)c1ccccc1C2=O [compound 31] | Δ (OD value is 50 to less than 70%.) | ◯ (OD value is 70 to less than 80%.) | – | –
23 | CCCCOC(=O)CSc1cc(O)c2c(c1N)C(=O)c1ccccc1C2=O [compound 32] | Δ (OD value is 50 to less than 70%.) | ◯ (OD value is 70 to less than 80%.) | – | –
24 | CCCCC(CC)C(=O)Nc1ccccc1Oc1cc(O)c2c(c1N)C(=O)c1ccccc1C2=O (stereo not drawn) [compound 33] | ◯ (OD value is 70 to less than 80%.) | ◯ (OD value is 70 to less than 80%.) | – | –
25 | CCCCC(CC)C(=O)Nc1cccc(Oc2cc(O)c3c(c2N)C(=O)c2ccccc2C3=O)c1 (stereo not drawn) [compound 34] | ◯ (OD value is 70 to less than 80%.) | ◯ (OD value is 70 to less than 80%.) | – | –
26 | Nc1c(Oc2ccccc2NC(=O)c2ccccc2)cc(O)c2c1C(=O)c1ccccc1C2=O [compound 35] | ◯ (OD value is 70 to less than 80%.) | ◯ (OD value is 70 to less than 80%.) | – | –
27 | CCCCN(CCCC)c1cccc(CCOc2cc(O)c3c(c2N)C(=O)c2ccccc2C3=O)c1 [compound 36] | ◯ (OD value is 70 to less than 80%.) | ◯ (OD value is 70 to less than 80%.) | – | –
28 | Nc1c(Oc2cccc(C(F)(F)F)c2)cc(O)c2c1C(=O)c1ccccc1C2=O [compound 37] | ◯ (OD value is 70 to less than 80%.) | ◯ (OD value is 70 to less than 80%.) | – | –
29 | CCCCCCCCCc1ccc(Oc2cc(O)c3c(c2N)C(=O)c2ccccc2C3=O)cc1 [compound 38] | ◯ (OD value is 70 to less than 80%.) | ◯ (OD value is 70 to less than 80%.) | – | –
30 | CCCCC(CC)C(=O)Oc1ccc(Oc2cc(O)c3c(c2N)C(=O)c2ccccc2C3=O)cc1 (stereo not drawn) [compound 39] | ◯ (OD value is 70 to less than 80%.) | ◯ (OD value is 70 to less than 80%.) | – | –
31 | CCCCC(CC)COC(=O)CSc1ccc(Oc2cc(O)c3c(c2N)C(=O)c2ccccc2C3=O)cc1 (stereo not drawn) [compound 40] | ◯ (OD value is 70 to less than 80%.) | ◯ (OD value is 70 to less than 80%.) | – | –
